Data taken from patent US20040214839A1, “Therapeutic methods” (priority 2001, published 2004).

What was measured:
[1] = in vivo; cited from earlier work
[2] = tested on: IL-10 release from U937 cells; assay: IL-10 release from U937 cells (ELISA); type: cell-based, human; conditions: for stimulation of IL-10 in the presence of a type IV selective PDE inhibitor: with vs without type IV selective PDE inhibitor (rolipram)
Method: U 937 cells were grown in RPMI (PAA Laboratories) medium with 10% fetal calf serum added (PAA Laboratories). 2×10^6 cells per flask were treated with prostaglandin E2 at 10^−6 Molar or with Rolipram (4×10^−6) for 24 hours. Medium was removed at […] and analysed by ELISA. A capture antibody (Pharmingen) was coated onto 96 well plates and culture medium was added each well. A standard curve was created with recombinant IL-10 protein. After incubation and washing, a biotin labelled monoclonal antibody (Pharmingen) was added and following incubation and washing, peroxidase labelled streptavidin was added. After washing a tetramethyl benzidine substrate was added and colour developed in proportion to IL-10 in the original sample/standard. Colour was read using a plate photometer (Labsystems, Multiskan). Mean concentrations (N=3) in controls with no lipopolysaccharide (LPS) were 38.2 pg/ml and in the presence of LPS (100 nM) they were 43.9 […].
The effect of PGE1, PGE2, 19 hydroxy PGE1 and 19 hydroxy PGE2 on the stimulation of IL-10 in the presence and absence of rolipram was investigated as described above in Example 2. IL-10 levels were measured using an ELISA assay (R&D Ltd, Oxford). Measurements were taken in accordance with the manufacturer's instructions.

[3] = tested on: phosphodiesterase IV-b mRNA; assay: Phosphodiesterase IV b mRNA in U937 cells (Taqman); type: cell-based, human; conditions: four hours of incubation; PGE 1×10^-6, 19-hydroxy PGE2 5×10^-6; without inhibitor
Method: After the incubation (20 hours), cells were pelleted and the mRNA was extracted with Tri-reagent (Sigma, Poole, UK). Total RNA was obtained by addition of chloroform and subsequent isopropanol precipitation. RNA was reverse transcribed with reverse transcriptase (Applied Biosystems) and random hexamers (Applied Biosystems). Probes and primers for IL-10 and IL-12 (p35) were designed using Primer Express (Applied Biosystems) and were as follows:
Template was amplified in a Taqman 7700 machine for 40 cycles using FAM/TAMRA dyes on the probe. The Applied Biosystems kit was used to amplify and detect ribosomal (18S)RNA (using VIC/TAMRA dyes) as an internal control in the same reaction tube. After 40 cycles the Ct (related to cycle number at which signal appears) for the FAM and the 18S (VIC) were recorded and […] relative quantitation was achieved using the formula 2^−ΔΔct where Δ refers to the difference between the FAM and VIC signal related to an standard comparator included in each run.
The mRNA for phosphodiesterase IV-b was measured as described in Example 2 above mRNA was extracted after four hours of incubation. The concentration of the PGE was 1×10^−6 and that of the 19-hydroxy PGE2 was 5×10^−6. The following primers and Taqman probe were used for quantitation of PDE IV b mRNA.

type IV PDE = conditions: cited from earlier work; for IC50: type IV PDE inhibitor

In the case of `CCCCC(C)(O)CC=C[C@H]1[C@H](O)CC(=O)[C@@H]1CCCCCCC(=O)OC` (mixture of isomers) [misoprostol, (±) methyl 11α, 16-dihydroxy-16-methyl-9-oxoprost-13-enoate], the hypotension [1] is given as “does not cause hypotension”.

With 19-hydroxy PGE2 the “concentration necessary to achieve similar effects to PGE” value ([2]; compared with PGE, Figures and Examples) was “higher concentration”, the “stimulation of IL-10 in the presence of a type IV selective PDE inhibitor” value [2] was “increased strikingly” and the “PDE activity (phosphodiesterase IV b mRNA) after prostaglandin application” value [3] was “increase”.

For `CCCCC[C@H](O)/C=C/[C@H]1[C@H](O)CC(=O)[C@@H]1C/C=C\CCCC(=O)O` [PGE, prostaglandin E2], the “stimulation of IL-10 in the presence of a type IV selective PDE inhibitor” value [2] was “increased strikingly” and the “PDE activity (phosphodiesterase IV b mRNA) after prostaglandin application” value [3] was “increase”.

For `Cn1c(=O)c2[nH]cnc2n(C)c1=O` [theophylline], the “times less effective than rolipram” value (type IV PDE; non-selective inhibitor compared with rolipram) is listed as 30 times.

For `COc1ccc(C2CNC(=O)C2)cc1OC1CCCC1` (stereo not drawn) [rolipram, 4-[3-cyclopentyloxy 4-methoxyphenyl]-2-pyrrolidinone], the IC50 (type IV PDE) is given as 0.8 µM.

For `CCCCOc1cc(CC2CNC(=O)N2)ccc1OC` (stereo not drawn) [Ro-20-1724, 4-[3-butoxy-4-methoxybenzyl]-2-imidazolidinone], the IC50 (type IV PDE) is listed as 2 µM.
